Where a name gives a salt, the structure may show the parent alone. Read-outs that look alike come from different tables or passages of the source.
Test system: human gel filtered platelets (GFP)
Assay: Inhibition of ADP-induced blood platelet aggregation in gel filtered platelets (Born-type optical aggregometer)
Type: cell-based
Details: human GFP approx. 300,000 platelets/µl, human fibrinogen 0.5mg/ml, Ca2+ 1mM, Mg2+ 0.5mM, compounds incubated 5 minutes at 37°C, ADP 1 x 10⁻⁵M, concentration producing 50% inhibition of platelet aggregation, read-out: IC₅₀
Method: Inhibition of blood platelet aggregation by compounds of the invention was determined according to the following procedure. Citrated whole blood (1 part 3.8% trisodium citrate : 9 parts blood) was obtained from human volunteers, free of medication for at least 10 days prior to collection. The blood was incubated with 0.1mM aspirin and 0.05µM prostacyclin and then centrifuged at 1000g for 4 minutes (20°C). The supernatant platelet rich plasma (PRP) was further centrifuged at 1300g for 10 minutes (20°C) to sediment the platelets. The supernatant was discarded and the pellet washed with a physiological salt solution (HEPES 5mM, NaHCO₃ 12mM, NaCl 140mM, KH₂PO₄ 0.74mM, D-Glucose 5.6mM, KCl 2.82mM and BSA 20g/l, pH 7.4) to remove residual plasma. After washing, the pellet was resuspended in physiological salt solution and then applied to a sepharose CL-2B column, pre-equilibrated with physiological salt solution at room temperature. The platelets (GFP) eluted within the void volume and were diluted to approximately 300,000 platelets/µl in buffer. Purified human fibrinogen (Knight L.C. et al, 1981 Thromb. Haemostasis, 46(3), 593-596) was added to a final concentration of 0.5mg/ml together with Ca2+ and Mg2+ at 1mM and 0.5mM respectively. […] The potency of the compounds may be expressed as an IC₅₀ value defined as the concentration of compound required to produce 50% inhibition of platelet aggregation.

Row | Compound | IC50 (5 min) | also measured
1 | C[N@+]1(CC(=O)O)CC[C@H](N2CCN(c3ccc(C(=N)N)cc3)CC2)CC1 [Example 16a, trans-4-[4-[4-(Aminoiminomethyl)phenyl]-1-piperazinyl]-1-(2-hydroxy-2-oxoethyl)-1-methylpiperidinium trifluoroacetate salt] | 0.044 µM | –
2 | Cc1cc(C(=N)N)ccc1N1CCN(C2CCN(CC(=O)O)CC2)CC1 [Example 25, trifluoroacetate salt] | 0.569 µM | –
3 | COC(=O)NC(=N)c1ccc(N2CCN(C3CCN(CC(=O)O)CC3)CC2)cc1 [Example 34, 4-[4-[4-[Imino[(methoxycarbonyl)amino]methyl]phenyl]-1-piperazinyl]-1-piperidineacetic acid trifluoroacetate salt] | 1.6 µM | –
4 | NC(=NO)c1ccc(N2CCN(C3CCN(CC(=O)O)CC3)CC2)cc1 [Example 17, 4-[4-[4-[Amino(hydroxyimino)methyl]phenyl]-1-piperazinyl]-1-piperidineacetic acid trifluoroacetate] | 5.66 µM | –
5 | C[C@@H]1CN(CC(=O)O)CC[C@@H]1N1CCN(c2ccc(C(=N)N)cc2)CC1 (relative stereo) [Example 30, cis-4-[4-[4-Aminoiminomethyl)phenyl]-1-piperazinyl]-3-methyl-1-piperidineacetic acid trihydrochloride salt] | 0.023 µM | –
6 | CC(C(=O)O)N1CCC(N2CCN(c3ccc(C(=N)N)cc3)CC2)CC1 (centres unmarked) [Example 26] | 0.177 µM | –
7 | N=C(NCC(F)(F)F)c1ccc(N2CCN(C3CCN(CC(=O)O)CC3)CC2)cc1 [Example 18, 4-[4-[4-[Imino[(2,2,2-trifluoroethyl)amino]methyl]phenyl]-1-piperazinyl]-1-piperidineacetic acid trifluoroacetate salt] | 0.316 µM | –
8 | 4-[4-[4-[(Diethylphosphinyl)amino]iminomethyl]phenyI]-1-piperazinyl]-1- piperidineacetic acid trifluoroacetate salt [Example 36] | – | IC50: 2.68 µM
9 | N=C(N)c1ccc(N2CCN(C3CC[N+](CC(=O)O)(Cc4ccccc4)CC3)CC2)cc1 (stereo not drawn) [Example 28, trans-4-[4-[4-(Aminoiminomethyl)phenyl]-1-piperazinyl]-1-(2-hydroxy-2-oxoethyl)-1-(phenylmethyl)piperidinium trifluoroacetate salt] | – | IC50 (trifluoroacetate salt): 0.038 µM
10 | N=C(N)c1ccc(N2CCN(C3CCN(CC(=O)O)CC3)CC2)cn1 [Example 19, trifluoroacetate salt] | 0.076 µM | –
11 | CCOC(=O)CN1CCC(N2CCN(c3ccc(C(=N)N)cc3)CC2)CC1 [Example 23, trifluoroacetate salt] | 16.2 µM | –
12 | N=C(N)c1ccc(N2CCN(C3CCN(CC(=O)O)CC3)CC2)nc1 [Example 41, trifluoroacetate salt] | 0.03 µM | –
13 | C[N@+]1(CC(=O)O)CC[C@H](C2CCN(c3ccc(C(=N)N)cc3)CC2)CC1 [Example 21, trans-4-[1-[4-(Aminoiminomethyl)phenyl]-4-piperidinyl]-1-(2-hydroxy-2-oxoethyl)-1-methylpiperidinium trifluoroacetate salt] | 0.041 µM | –
14 | CC1CN(c2ccc(C(=N)N)cc2)CCN1C1CCN(CC(=O)O)CC1 (centres unmarked) [Example 20, trifluoroacetate salt] | 0.071 µM | –
15 | N=C(N)c1ccc(C2CCN(C3CCN(CC(=O)O)CC3)CC2)cc1 [Example 22, trifluoroacetate salt] | 0.071 µM | –
16 | N=C(N)c1ccc(N2CCN(C3CC[N+](CC(=O)O)(Cc4ccccc4)CC3)CC2)cc1 (stereo not drawn) [Example 29, cis-4-[4-[4-(Aminoiminomethyl)phenyl]-1-piperazinyl]-1-(2-hydroxy-2-oxoethyl)-1-(phenylmethyl)piperidinium trifluoroacetate salt] | – | IC50 (trifluoroacetate salt): 0.354 µM
17 | N=C(N)c1ccc(N2CCN(C3CCN(CC(=O)O)CC3)CC2)c(Br)c1 [Example 24, trifluoroacetate salt] | 0.342 µM | –

Reference: patent EP0542363A2 (GLAXO GROUP LIMITED, priority 1991, dated 1993)
